The source made the active and inactive calls.
Experiments:
[1] = target: Tyrosine-protein phosphatase non-receptor type 5 (Homo sapiens, UniProt P54829); experiment: STEP phosphatase inhibitors, confirmation, biochemical, fluorescence intensity, uHTS hits (AID 602372); type: functional; settings: read-out: IC50_Mean
[2] = target: Tyrosine-protein phosphatase non-receptor type 11 (Homo sapiens, UniProt Q06124); experiment: SHP2 phosphatase inhibition, dose response, selectivity assay for STEP inhibitor project, biochemical (AID 602367); type: functional; settings: read-out: IC50_Mean
Chain of Tyrosine-protein phosphatase non-receptor type 11 (Q06124 whole entry): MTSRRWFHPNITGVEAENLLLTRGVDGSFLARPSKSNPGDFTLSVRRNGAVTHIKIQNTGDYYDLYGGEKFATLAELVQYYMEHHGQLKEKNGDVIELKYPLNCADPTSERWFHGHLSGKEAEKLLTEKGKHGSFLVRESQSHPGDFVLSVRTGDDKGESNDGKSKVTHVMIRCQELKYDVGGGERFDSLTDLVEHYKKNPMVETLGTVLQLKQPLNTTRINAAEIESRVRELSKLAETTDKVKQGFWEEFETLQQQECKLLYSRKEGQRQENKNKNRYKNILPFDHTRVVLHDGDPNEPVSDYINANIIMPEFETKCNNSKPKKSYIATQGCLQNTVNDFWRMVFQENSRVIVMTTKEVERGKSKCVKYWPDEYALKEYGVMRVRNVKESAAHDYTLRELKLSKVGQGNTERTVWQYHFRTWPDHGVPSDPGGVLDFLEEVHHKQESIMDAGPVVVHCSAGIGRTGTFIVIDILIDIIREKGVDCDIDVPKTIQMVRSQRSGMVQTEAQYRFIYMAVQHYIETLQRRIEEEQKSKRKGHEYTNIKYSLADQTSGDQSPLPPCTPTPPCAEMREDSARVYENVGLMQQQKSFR

[3] = target: Dual specificity protein phosphatase 3 (Homo sapiens, UniProt P51452); experiment: VHR phosphatase inhibition, dose response, selectivity assay for STEP inhibitor project, biochemical (AID 602374); type: functional; settings: read-out: IC50_Mean
Chain of Dual specificity protein phosphatase 3 (P51452 whole entry): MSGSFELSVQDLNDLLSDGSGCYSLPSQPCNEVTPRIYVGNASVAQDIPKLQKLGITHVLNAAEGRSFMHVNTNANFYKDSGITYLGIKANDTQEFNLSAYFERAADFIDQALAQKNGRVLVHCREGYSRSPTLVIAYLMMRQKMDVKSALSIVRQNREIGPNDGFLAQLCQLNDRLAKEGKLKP

[4] = target: Potassium voltage-gated channel subfamily KQT member 2 (Rattus norvegicus, UniProt O88943); experiment: KCNQ2 potassium channel inhibitors, dose response, cell-based, automated electrophysiology, set II, rat KCNQ2 (AID 588637); type: functional
Chain of Potassium voltage-gated channel subfamily KQT member 2 (O88943 whole entry): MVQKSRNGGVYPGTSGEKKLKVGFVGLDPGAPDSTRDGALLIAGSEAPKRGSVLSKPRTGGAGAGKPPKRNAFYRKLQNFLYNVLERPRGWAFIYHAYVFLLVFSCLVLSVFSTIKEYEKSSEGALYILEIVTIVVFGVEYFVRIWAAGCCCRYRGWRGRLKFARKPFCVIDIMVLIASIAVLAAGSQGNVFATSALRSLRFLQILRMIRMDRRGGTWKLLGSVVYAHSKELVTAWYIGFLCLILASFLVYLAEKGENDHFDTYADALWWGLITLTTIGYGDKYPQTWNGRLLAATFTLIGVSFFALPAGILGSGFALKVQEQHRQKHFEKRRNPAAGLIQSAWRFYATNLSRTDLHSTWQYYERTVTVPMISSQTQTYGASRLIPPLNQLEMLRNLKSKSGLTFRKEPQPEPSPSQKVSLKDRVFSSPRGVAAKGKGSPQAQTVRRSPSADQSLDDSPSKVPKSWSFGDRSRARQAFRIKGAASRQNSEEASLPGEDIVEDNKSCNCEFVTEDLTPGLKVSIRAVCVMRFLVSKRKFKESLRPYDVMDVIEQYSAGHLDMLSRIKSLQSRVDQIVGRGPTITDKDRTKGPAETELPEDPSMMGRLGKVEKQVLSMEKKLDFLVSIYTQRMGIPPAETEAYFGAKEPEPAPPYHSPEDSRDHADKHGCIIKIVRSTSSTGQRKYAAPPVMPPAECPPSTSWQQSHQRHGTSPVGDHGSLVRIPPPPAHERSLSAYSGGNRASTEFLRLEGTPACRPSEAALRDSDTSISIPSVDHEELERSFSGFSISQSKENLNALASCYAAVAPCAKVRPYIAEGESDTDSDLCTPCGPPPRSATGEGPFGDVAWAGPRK

[5] = NIH-3T3 fibroblast cytotoxicity, dose response, cytotoxicity control, cell-based, fluorescence, Alamar Blue, secondary assay (AID 2327); type: functional;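 further: NIH-3T3 mouse fibroblasts cultured with fluconazole at 8 µg/mL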
[6] = C. albicans growth with fluconazole, confirmation, fluorescence, retest (AID 2467); type: functional, cell-based
[7] = cytotoxicity toward NIH3T3 fibroblasts, dose response, counter-screen, cell-based, ATP luminescence, mouse fibroblasts (AID 2010); type: functional;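 further: cells exposed to compound for about 90 hours before reading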
[8] = inhibitors of intracellular T. cruzi replication, confirmation, NIH3T3 host cells, beta-gal luminescence (AID 2044); type: functional, cell-based;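 further: intracellular parasites grown in NIH/3T3 mouse fibroblasts as host cells; luminescent beta-galactosidase reporter signal from transgenic T. cruzi replicating inside host cells; inhibitors lower the luminescence signal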
[9] = target: T1, Short transient receptor potential channel 4 (Mus musculus, UniProt Q9QUQ5); experiment: mouse TRPC4 channel inhibitors, dose response, cell-based, HEK293 TRPC4/mu-opioid, Fluo-4 calcium (AID 434942); type: functional;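 further: potency of inhibitors blocking the TRPC4 calcium response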
T1 sequence (Q9QUQ5 whole entry): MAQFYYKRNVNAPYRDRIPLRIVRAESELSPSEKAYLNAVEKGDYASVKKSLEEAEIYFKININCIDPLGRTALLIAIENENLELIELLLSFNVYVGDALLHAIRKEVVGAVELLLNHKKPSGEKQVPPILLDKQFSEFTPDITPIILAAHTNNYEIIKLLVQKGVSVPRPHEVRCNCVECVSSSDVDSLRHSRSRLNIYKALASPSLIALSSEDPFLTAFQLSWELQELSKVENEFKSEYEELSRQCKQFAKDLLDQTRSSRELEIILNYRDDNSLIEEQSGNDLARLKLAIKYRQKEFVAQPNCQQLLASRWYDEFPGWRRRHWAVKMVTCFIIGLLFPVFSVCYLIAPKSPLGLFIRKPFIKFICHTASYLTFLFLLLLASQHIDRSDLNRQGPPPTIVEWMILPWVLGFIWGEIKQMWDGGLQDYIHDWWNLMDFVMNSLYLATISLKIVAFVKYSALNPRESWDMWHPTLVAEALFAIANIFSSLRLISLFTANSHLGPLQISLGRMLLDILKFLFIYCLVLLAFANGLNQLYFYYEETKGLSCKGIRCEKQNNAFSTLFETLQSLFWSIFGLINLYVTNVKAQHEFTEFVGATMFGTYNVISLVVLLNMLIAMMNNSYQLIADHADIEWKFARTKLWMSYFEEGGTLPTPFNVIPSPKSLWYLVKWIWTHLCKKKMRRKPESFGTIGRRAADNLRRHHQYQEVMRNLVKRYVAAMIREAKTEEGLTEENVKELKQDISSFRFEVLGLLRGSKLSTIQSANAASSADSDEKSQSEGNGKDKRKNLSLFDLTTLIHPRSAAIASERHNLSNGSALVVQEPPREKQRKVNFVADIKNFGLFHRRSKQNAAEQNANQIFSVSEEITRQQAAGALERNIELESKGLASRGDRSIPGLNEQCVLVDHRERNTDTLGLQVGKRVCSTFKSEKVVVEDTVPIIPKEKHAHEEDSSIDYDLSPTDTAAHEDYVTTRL

[10] = target: T2, Ubiquitin-conjugating enzyme E2 N (Homo sapiens, UniProt P61088); type: functional
T2 sequence (P61088 whole entry): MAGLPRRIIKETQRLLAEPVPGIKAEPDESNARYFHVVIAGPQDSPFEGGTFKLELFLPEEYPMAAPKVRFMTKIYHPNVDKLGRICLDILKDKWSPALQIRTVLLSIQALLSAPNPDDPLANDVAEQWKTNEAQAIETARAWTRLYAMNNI

[11] = target: Benomyl/methotrexate resistance protein (Candida albicans, UniProt P28873); experiment: CaMdr1 efflux pump inhibitor potency, dose response, singleplex, Cherry Pick1 hits (AID 588608); type: functional
Chain of Benomyl/methotrexate resistance protein (P28873 whole entry): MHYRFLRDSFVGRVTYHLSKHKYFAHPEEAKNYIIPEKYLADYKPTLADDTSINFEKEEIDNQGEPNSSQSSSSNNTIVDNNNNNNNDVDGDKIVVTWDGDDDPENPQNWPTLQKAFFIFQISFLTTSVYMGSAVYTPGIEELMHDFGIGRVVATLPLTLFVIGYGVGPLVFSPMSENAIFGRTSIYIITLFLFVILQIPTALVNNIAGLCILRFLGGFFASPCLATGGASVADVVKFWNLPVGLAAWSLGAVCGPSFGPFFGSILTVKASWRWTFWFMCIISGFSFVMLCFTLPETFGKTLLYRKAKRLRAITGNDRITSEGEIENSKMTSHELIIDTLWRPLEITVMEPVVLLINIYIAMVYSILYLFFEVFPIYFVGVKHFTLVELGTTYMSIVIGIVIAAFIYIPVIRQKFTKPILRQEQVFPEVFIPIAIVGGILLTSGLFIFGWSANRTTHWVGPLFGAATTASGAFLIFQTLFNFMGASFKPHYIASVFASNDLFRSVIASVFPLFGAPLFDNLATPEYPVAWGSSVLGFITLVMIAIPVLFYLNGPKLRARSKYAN

[12] = MDA-MB-231 cell growth inhibition, dose response, cytotoxicity control for RAD54 inhibitor project, CellTiter-Glo luminescence, cherry-pick (AID 651692); type: functional, cell-based
Bcl-2-related protein A1 = Bcl-2-related protein A1 (Mus musculus, UniProt Q07440); type: functional;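 further: confirmatory dose–response counterscreen on Bfl-1, used to check hits from a UBC13 polyubiquitin inhibitor campaign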
Chain of Bcl-2-related protein A1 (Q07440 whole entry): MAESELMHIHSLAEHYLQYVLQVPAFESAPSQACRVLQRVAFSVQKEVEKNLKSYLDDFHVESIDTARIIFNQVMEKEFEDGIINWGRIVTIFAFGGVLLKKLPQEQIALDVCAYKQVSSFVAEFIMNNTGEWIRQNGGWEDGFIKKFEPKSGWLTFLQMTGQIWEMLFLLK

[13] = target: T2, Ubiquitin-conjugating enzyme E2 N; type: functional; remark: listed apart in the source
[14] = target: T3, DNA repair and recombination protein RAD54-like (Homo sapiens, UniProt Q92698); experiment: inhibitors of human RAD54 branch migration, confirmation, biochemical, fluorescence, cherry-picked samples, dose series (AID 651657); type: functional
T3 sequence (Q92698 whole entry): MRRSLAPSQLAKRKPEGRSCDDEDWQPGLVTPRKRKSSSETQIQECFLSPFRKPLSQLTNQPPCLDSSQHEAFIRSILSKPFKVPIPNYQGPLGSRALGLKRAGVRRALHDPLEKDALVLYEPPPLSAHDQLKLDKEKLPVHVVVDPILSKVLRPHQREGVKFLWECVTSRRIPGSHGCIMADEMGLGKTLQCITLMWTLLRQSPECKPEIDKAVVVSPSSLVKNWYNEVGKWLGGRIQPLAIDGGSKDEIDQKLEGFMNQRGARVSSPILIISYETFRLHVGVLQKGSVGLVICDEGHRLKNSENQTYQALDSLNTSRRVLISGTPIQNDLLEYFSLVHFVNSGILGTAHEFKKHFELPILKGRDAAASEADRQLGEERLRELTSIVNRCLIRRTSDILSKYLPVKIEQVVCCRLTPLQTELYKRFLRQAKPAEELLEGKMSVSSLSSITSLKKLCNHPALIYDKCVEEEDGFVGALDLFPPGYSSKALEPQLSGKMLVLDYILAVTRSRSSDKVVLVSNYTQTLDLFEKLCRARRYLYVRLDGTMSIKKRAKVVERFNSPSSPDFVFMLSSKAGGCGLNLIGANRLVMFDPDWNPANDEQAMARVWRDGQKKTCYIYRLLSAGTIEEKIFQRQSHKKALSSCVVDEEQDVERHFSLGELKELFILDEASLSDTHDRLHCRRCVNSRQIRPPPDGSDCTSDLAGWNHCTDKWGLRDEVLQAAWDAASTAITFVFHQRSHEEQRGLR

[15] = system: Streptococcus sp. 'group A'; experiment: growth inhibition of control SK(-) GAS strain, dose response, counter-screen for streptokinase expression inhibitor project, luminescence, kanamycin, BacTiterGlo, confirmation (AID 1900); type: functional, organism-based
Streptococcus = experiment: Group A Streptococcus viability loss, dose response, counter-screen for streptokinase expression inhibitor project, luminescence, BacTiterGlo (AID 1915); type: functional, organism-based;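 further: potency for reduction of bacterial viability or growth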
[16] = Fluorescence-based cell-based high throughput dose response assay for inhibitors of the interaction of nucleotide-binding oligomerization domain containing 2 (NOD2) and the receptor-interacting serine-threonine kinase 2 (RIPK2).; type: functional; settings: Homo sapiens
[17] = target: T4, Low molecular weight phosphotyrosine protein phosphatase (Homo sapiens, UniProt P24666); type: functional; settings: read-out: IC50_Mean
T4 sequence (P24666 whole entry, the tested form may be a part): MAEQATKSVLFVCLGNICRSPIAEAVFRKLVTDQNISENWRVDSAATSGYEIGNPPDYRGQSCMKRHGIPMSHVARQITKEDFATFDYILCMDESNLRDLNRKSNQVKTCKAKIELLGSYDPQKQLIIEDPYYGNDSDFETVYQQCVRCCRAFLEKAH

[18] = target: T5, Tyrosine-protein phosphatase non-receptor type 22 (Homo sapiens, UniProt Q9Y2R2); experiment: LYP phosphatase inhibition for selectivity, dose response, selectivity assay for LMPTP inhibitor project, biochemical, fluorescence, LYP catalytic domain (AID 652006); type: functional; settings: read-out: IC50_Mean
T5 sequence (Q9Y2R2 whole entry): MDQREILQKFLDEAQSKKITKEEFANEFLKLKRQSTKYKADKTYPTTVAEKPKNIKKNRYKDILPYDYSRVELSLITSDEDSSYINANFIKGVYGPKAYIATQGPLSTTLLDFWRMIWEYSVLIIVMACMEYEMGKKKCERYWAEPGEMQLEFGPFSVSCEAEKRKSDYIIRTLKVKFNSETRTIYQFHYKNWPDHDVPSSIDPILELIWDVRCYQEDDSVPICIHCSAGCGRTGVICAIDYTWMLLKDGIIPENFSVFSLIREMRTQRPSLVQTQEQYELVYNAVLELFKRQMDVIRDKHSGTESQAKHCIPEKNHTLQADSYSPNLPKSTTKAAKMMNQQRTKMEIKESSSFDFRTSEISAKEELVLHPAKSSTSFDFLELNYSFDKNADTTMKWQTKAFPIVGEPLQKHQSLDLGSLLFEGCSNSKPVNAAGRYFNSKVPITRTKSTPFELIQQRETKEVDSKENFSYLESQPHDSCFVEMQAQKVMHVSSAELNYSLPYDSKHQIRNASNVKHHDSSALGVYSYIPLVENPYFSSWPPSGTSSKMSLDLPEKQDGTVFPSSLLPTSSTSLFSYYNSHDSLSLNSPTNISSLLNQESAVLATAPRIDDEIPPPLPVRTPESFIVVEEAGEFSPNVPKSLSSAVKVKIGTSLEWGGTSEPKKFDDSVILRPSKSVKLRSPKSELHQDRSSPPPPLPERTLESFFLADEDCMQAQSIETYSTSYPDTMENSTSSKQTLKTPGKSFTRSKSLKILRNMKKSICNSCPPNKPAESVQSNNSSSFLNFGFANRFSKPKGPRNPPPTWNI

[19] = target: T4, Low molecular weight phosphotyrosine protein phosphatase; type: functional; settings: read-out: IC50_Mean; remark: listed apart in the source
[20] = target: T6, Carboxy-terminal domain RNA polymerase II polypeptide A small phosphatase 1 (Homo sapiens, UniProt Q9GZU7); experiment: inhibitors of CTDSP1, concentration-response testing, biochemical assay, absorbance-based, actives from ultra-high-throughput screening (AID 540297); type: functional
T6 sequence (Q9GZU7 whole entry): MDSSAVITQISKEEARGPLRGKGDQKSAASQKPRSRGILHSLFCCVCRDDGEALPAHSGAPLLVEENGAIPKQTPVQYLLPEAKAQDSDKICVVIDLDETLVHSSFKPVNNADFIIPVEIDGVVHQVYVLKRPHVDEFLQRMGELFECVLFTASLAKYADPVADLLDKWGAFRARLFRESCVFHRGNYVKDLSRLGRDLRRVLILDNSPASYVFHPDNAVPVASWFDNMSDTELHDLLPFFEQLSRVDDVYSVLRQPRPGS

Chain of Tyrosine-protein phosphatase non-receptor type 5 (P54829 whole entry): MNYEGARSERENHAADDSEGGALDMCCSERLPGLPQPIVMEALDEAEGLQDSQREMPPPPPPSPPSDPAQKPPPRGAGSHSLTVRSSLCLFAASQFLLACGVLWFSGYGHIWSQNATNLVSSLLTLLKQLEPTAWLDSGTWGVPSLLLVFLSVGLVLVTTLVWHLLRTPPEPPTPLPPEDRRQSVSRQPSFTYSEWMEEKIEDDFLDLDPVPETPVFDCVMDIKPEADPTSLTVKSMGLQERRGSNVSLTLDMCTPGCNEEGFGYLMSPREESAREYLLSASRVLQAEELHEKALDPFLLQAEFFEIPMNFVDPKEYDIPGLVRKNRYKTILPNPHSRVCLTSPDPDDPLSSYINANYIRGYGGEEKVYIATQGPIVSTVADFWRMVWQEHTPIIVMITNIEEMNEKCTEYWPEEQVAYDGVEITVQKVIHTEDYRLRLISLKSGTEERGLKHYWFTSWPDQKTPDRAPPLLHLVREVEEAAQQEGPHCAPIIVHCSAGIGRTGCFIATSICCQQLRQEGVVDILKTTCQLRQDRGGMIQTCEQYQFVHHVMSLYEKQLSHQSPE

Cc1nn(C)cc1/C=N/NC(=S)Nc1ccccc1
IC50 [1]: 26.5 µM (inactive) | IC50 [2]: 3.15 µM (active) | IC50 [3]: 1.22 µM (active)

COc1cc2cc(C(c3nnnn3Cc3ccc(F)cc3)N3CCCCCC3)c(O)nc2cc1OC (stereo not given)
IC50 [4]: 4.96 µM (active)

O=C(C[n+]1cc(-c2ccc(Cl)c(Cl)c2)n2c1CCC2)N1c2ccccc2Sc2ccccc21
EC50 [5]: > 150 µM (inactive) | EC50 [6]: 1.1 µM (active) | EC50 [7]: > 60 µM (not active) | EC50 [8]: 0.845 µM (active) | EC50 [9]: 1.88 µM (active) | IC50 [10]: > 20 µM (inactive) | EC50 [11]: 0.014 µM (active)

CN(C)CCCn1c(SCC(=O)Nc2nc(-c3cccc(Br)c3)cs2)nc2ccccc2c1=O
AC50 [12]: 13.9 µM (active) | EC50 [7]: 4.52 µM (active) | IC50 (Bcl-2-related protein A1): 13.1 µM (active) | IC50 [13]: 5.29 µM (active) | EC50 [8]: 1.66 µM (active) | AC50 [14]: 95.9 µM (active) | EC50 [15]: 3.17 µM (active) | IC50 [10]: 5.58 µM (active) | EC50 (Streptococcus): 6.99 µM (active)

Cn1cnc([N+](=O)[O-])c1S(=O)(=O)Oc1cccc2ccccc12
IC50 [16]: 3.4 µM (active)

O=C(CCN1C(=O)/C(=C/c2ccc3c(c2)OCO3)SC1=S)Nc1ccc(C(=O)O)cc1
IC50 [17]: 8.74 µM (active) | IC50 [18]: 12.9 µM (active) | IC50 [19]: 16.2 µM (active) | IC50 [20]: 2.3 µM (active)

Source: ChEMBL document CHEMBL1201862, “PubChem BioAssay data set” (2004)
